# Laboratory results taken from PubChem BioAssay AID1919003 (Molecular Pharmacology Branch, DTP, NCI, 2023).
# Tested on: 786-0 complex spheroids with HUVEC/MSC, growth % test/control
# Assay: Anticancer human tumor 786-0 cell line growth inhibition [AhR];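 further: compound exposure lasted seven days before the read-out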
# Conditions: for IC50: curve of first compound; for viability, T/C: stronger effect = lower value
# Procedure, shortened: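 Spheroids combined tumor cells with HUVEC endothelial cells and human MSCs as stroma. AhR antagonists were paired with standard or investigational drugs, each dosed in half-log steps down from near clinical Cmax, or from 10 microM where Cmax was unknown.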
smiles,measurement,setting,value
CC(C)c1c(-c2ccccc2)nc2c(C#N)c[nH]n2c1=O + Cc1cncc(-c2nc(NCCc3c[nH]c4ccccc34)c3ncn(C(C)C)c3n2)c1,IC50,second compound 0.1 µM,> 10 µM
same,IC50,second compound 0.316 µM,> 10 µM
same,IC50,second compound 1 µM,> 10 µM
same,IC50,second compound 3.16 µM,> 10 µM
same,IC50,second compound 10 µM,< 0.0316 µM
same,"viability, T/C","second compound 0.1 µM, first compound 0.0316 µM",115%
same,"viability, T/C","second compound 0.1 µM, first compound 0.1 µM",121%
same,"viability, T/C","second compound 0.1 µM, first compound 0.316 µM",112%
same,"viability, T/C","second compound 0.1 µM, first compound 1 µM",123%
same,"viability, T/C","second compound 0.1 µM, first compound 3.16 µM",113%
same,"viability, T/C","second compound 0.1 µM, first compound 10 µM",132%
same,"viability, T/C","second compound 0.316 µM, first compound 0.0316 µM",120%
same,"viability, T/C","second compound 0.316 µM, first compound 0.1 µM",118%
same,"viability, T/C","second compound 0.316 µM, first compound 0.316 µM",118%
same,"viability, T/C","second compound 0.316 µM, first compound 1 µM",124%
same,"viability, T/C","second compound 0.316 µM, first compound 3.16 µM",115%
same,"viability, T/C","second compound 0.316 µM, first compound 10 µM",104%
same,"viability, T/C","second compound 1 µM, first compound 0.0316 µM",114%
same,"viability, T/C","second compound 1 µM, first compound 0.1 µM",107%
same,"viability, T/C","second compound 1 µM, first compound 0.316 µM",114%
same,"viability, T/C","second compound 1 µM, first compound 1 µM",108%
same,"viability, T/C","second compound 1 µM, first compound 3.16 µM",116%
same,"viability, T/C","second compound 1 µM, first compound 10 µM",112%
same,"viability, T/C","second compound 3.16 µM, first compound 0.0316 µM",82.9%
same,"viability, T/C","second compound 3.16 µM, first compound 0.1 µM",71.8%
same,"viability, T/C","second compound 3.16 µM, first compound 0.316 µM",78.2%
same,"viability, T/C","second compound 3.16 µM, first compound 1 µM",78%
same,"viability, T/C","second compound 3.16 µM, first compound 3.16 µM",67.2%
same,"viability, T/C","second compound 3.16 µM, first compound 10 µM",76.1%
same,"viability, T/C","second compound 10 µM, first compound 0.0316 µM",7.79%
same,"viability, T/C","second compound 10 µM, first compound 0.1 µM",5.72%
same,"viability, T/C","second compound 10 µM, first compound 0.316 µM",9.94%
same,"viability, T/C","second compound 10 µM, first compound 1 µM",8.21%
same,"viability, T/C","second compound 10 µM, first compound 3.16 µM",8.12%
same,"viability, T/C","second compound 10 µM, first compound 10 µM",9.28%
